Molecules are shown by their SMILES. Where two headings read alike, the source gives them in different places.

The subject of assay [1] is Aβ25-35-induced passive avoidance impairments. In words: Step-through passive avoidance test, Aβ25-35-injected mice. It counts as in vivo, male Swiss mice. As to conditions: 0.3-3 mg/kg ip o.d. day 1 to 7; retention day 10.
Assay [2] concerns Aβ25-35-induced spontaneous alternation deficits. In words: Spontaneous alternation test in the Y-maze, Aβ25-35-injected mice. Conditions: for prevention of the effects of Aβ injection, both behavioral parameters: dose of 1 or 3 mg/kg ip, Y-maze and passive avoidance; for dose active on Aβ25-35-induced spontaneous alternation deficits: ip o.d. day 1 to 7. In kind it is in vivo, male Swiss mice. The protocol:
2013, 38, pages 1706-1723.
AD-like cognitive dysfunctions were induced in male Swiss mice, 6 weeks old, weighing 31-36 g by intracerebroventricular (icv) injection of the oligomerized Aβ25-35 peptide into the mouse brain on day 1.
Compounds were weighed, dissolved in pure DMSO at a concentration of 1 mg/ml and diluted into final test concentrations with saline. The final percentage of DMSO in saline was 60% for all compounds. Vehicle solution used for control groups was 60% DMSO in saline. Compounds were injected intraperitoneally (ip) from day 1 to 7 and behavioral studies were conducted between day 8 and 10. Spatial working memory was evaluated using a spontaneous alternation test in a Y-maze on day 8. The Y-maze is made of grey polyvinylchloride. Each arm is 40 cm long, 13 cm high, 3 cm wide at the bottom, 10 cm wide at the top, and converging at an equal angle. Each mouse is placed at the end of one arm and allowed to explore the maze freely for 8 min. The sequence of arm entries (including possible returns into the same arm) was checked visually and noted down. If the mouse enters all three arms on consecutive occasion, this is defined as an alternation. Therefore, the total number of arm entries minus two is also the maximum number of alternations. The percentage of alternation was calculated as (actual alternations / maximum alternations) x 100. Parameters for the evaluation of behavior are given as the percentage of alternation (memory index) and a total number of arm entries (exploration index).
Figs. 7a-h show the effect of the compounds on Aβ25-35-induced spontaneous alternation deficits in mice. […] Figs. 7a, c, e, g: spontaneous alternation performance; Figs. 7b, d, f, h: number of arm entries in the Y-maze test performed at day 8.

Assay [3] concerns the target T1, hBChE (Homo sapiens, UniProt P06276). In words: biochemical. It counts as biochemical. As to conditions: for Selectivity index (IC50 hAChE/IC50 hBChE): hAChE over hBChE. Here is the method: (§1) For evaluation of enzyme inhibition, Ellman's colorimetric assay was conducted as described in Ellman, G. L., Arch. Biochem. Biophys 1958, 74, 443-450 and Ellman, G. L. et al., Biochem. Pharmacol. 1961, 7, 88-95. Therefor, 5,5'-dithiobis-(2-nitrobenzoic acid) (DTNB) solution, respective Cholinesterase (ChE) and inhibitor were incubated together and enzyme activity was measured after 20 min. The long incubation time was needed to allow the carbamate transfer between ChE and inhibitor.
(§2) The carbamate residue was altered systematically by changing residues in the terminal position of carbamate moiety and different flexible alkylene linkers were introduced. […] Nevertheless, it must be noted that IC50 values only serve as a first indicator of inhibitor affinity and selectivity. Due to the chemical reaction of carbamate transfer the enzyme inhibition is strongly time dependent. […]

The target of assay [4] is T1, hBChE. In words: Carbamoylation kinetics on hBChE (time-dependent inhibition, Kc and k3). Conditions: for k3 [min^-1] hBChE: carbamoylation rate constant; for Kd: carbamoylation, pre-equilibrium constant. In kind it is biochemical. An excerpt:
As carbamate based inhibitors (C-X) show a pseudo irreversible manner of binding, the IC50 values must be seen critically because two chemical reactions determine them: Carbamate (C) transfer onto the enzyme (E) and carbamate hydrolysis. So, the Kc values, k3 and k4 rate constants according to below formula were investigated for some representative compounds (c.f. Fig. 3 and Fig. 4). [formula]
The mechanism of enzyme inhibition can be divided into three steps: In a pre-equilibrium, the carbamate based inhibitor C-X is bound to the enzyme E and a complex (EC-X) is formed reversible and can be characterized with Kc. Then the carbamate C is transferred onto the enzyme E and binds covalently to form E-C with the rate constant k3 while carrier scaffold X is released. Then E-C is hydrolyzed and enzyme activity is recovered and the amine C' is released with the rate constant k4, also called decarbamoylation rate.
For the determination of Kc and k3 a similar experimental setup was used compared to the evaluation of IC50 values, whereas enzyme activity was measured at various time points after addition of inhibitor.
A = A0 ⋅e^(−kobs ⋅t) + A∞ [formula]
Plotting the enzyme activity (in %) against the incubation times, lead to nonlinear time-dependent inhibition curves for the respective inhibitor concentrations whereby kobs can be determined with an exponential fit correspondent to equation (I).
Furthermore, a hyperbolic curve is obtained, plotting the rate constant kobs against the inhibitor concentration [I], which is described by equation (II), with the substrate concentration [S] and the Michaelis-Menten constant KM. kobs = (k3 ⋅[I])/(KC ⋅(1+([S])/(KM)) + [I]) [formula]
This equation (II) can be rearranged to the reciprocal of kobs, to get a linear plot: (1)/(kobs) = (KC ⋅(1+([S])/(KM)))/(k3)⋅(1)/([I]) + (1)/(k3) [formula]
Since the substrate butyrylthiocholine iodide is not added directly to the enzyme and the inhibitor, but after the incubation of enzyme with inhibitor, [S] can be set to zero, leading to Michaelis-Menten like equation IV. (1)/(kobs) = (KC)/(k3)⋅(1)/([I]) + (1)/(k3) [formula]
Relating to the linear equation (IV), KC can be established from the slope and carbamoylation rate constant k3 from the y-intercept.
As a chemical reaction is taking place, Kc must be seen as a 'real' measure for quantification of enzyme inhibitor interactions. Due to the high costs in measurements on hBChE only some representative compounds were chosen to evaluate also in kinetic studies based on the results from IC50 measurements (table 3). Table 3. Kinetic values for carbamoylation on hBChE for selected representative compounds

The target in assay [5] is T1, hBChE. In words: Decarbamoylation from hBChE, dilution experiments (recovery of enzyme activity, k4). In kind it is biochemical. As to conditions: decarbamoylation rate, after 1 h incubation and 1:1000 dilution. Here is the method:
To further investigate the presence and nature of a peripheral binding site, also the hydrolysis of carbamate and the resulting release of the inhibitor from the enzyme was investigated by measuring the time dependent recovery of enzyme activity. To measure the decarbamoylation rate k4, dilution experiments were performed with hBChE following the procedure described in Sawatzky, E. et al., ChemMedChem 2016, 11, 1540-1550 and in Bartolucci, C. et al., Biochem. J. 2012, 444, 269-277. A high concentration of enzyme and inhibitor where incubated for 1 h. The concentration of inhibitor was chosen, such that > 85% of hBChE was inhibited through carbamate transfer. Then the mixture was diluted with buffer 1:1000 to a concentration at which the enzyme is not further carbamoylated. Due to the hydrolysis and release of the carbamate from the catalytic active serine enzyme activity was recovered slowly. This regeneration of the enzyme was monitored at different time points after the dilution. […] A = (1−e^(k4 ⋅t))⋅(1−A0) + A0 [formula] Table 4. Kinetic values for decarbamoylation from hBChE of selected compounds

For another assay, the target named is hAChE (Homo sapiens, UniProt P22303). In words: Ellman's colorimetric assay, inhibition of hAChE. In kind it is biochemical. As to conditions: for inhibition at 25 µM / inhibition at 100 µM: read-out: inhibition of hAChE. Here is the method:
as §1, §2

Where [6] appears, read: enzyme activity measured after 20 min incubation.
The mark [7] stands for this setting: enzyme activity measured after 20 min incubation, read-out: IC50 hBChE.

Chain of hAChE (P22303 32-614): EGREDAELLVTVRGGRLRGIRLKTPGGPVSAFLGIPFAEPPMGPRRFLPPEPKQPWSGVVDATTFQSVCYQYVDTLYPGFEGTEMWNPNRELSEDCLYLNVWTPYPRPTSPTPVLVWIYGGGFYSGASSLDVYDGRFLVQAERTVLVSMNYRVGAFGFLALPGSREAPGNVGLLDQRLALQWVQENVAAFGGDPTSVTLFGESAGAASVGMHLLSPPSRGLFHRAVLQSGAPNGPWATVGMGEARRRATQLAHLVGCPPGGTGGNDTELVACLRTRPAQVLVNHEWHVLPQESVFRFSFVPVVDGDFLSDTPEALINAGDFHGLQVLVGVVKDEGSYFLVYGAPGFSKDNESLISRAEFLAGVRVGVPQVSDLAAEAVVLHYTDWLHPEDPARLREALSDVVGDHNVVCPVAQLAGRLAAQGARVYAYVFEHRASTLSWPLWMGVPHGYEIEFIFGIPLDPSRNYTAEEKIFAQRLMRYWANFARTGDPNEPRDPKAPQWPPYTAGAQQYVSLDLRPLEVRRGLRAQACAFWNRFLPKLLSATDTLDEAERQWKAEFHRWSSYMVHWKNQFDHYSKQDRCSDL
T1 sequence (P06276 29-602): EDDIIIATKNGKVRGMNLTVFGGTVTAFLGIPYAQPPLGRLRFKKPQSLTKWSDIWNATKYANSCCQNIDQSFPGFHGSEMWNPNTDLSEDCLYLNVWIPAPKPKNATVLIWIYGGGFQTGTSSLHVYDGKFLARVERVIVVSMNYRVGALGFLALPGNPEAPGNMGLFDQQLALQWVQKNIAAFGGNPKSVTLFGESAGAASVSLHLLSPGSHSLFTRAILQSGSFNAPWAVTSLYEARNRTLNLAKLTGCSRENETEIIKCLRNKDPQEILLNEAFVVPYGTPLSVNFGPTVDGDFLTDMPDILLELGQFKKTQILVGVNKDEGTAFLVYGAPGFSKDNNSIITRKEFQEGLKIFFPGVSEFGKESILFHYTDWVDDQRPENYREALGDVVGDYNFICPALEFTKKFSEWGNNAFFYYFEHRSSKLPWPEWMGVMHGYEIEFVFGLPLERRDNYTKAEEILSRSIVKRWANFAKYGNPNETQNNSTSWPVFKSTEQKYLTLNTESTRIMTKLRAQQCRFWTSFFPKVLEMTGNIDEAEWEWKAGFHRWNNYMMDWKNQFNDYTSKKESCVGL

On to `CN1c2ccc(O)cc2CN2CCc3ccccc3C21` (stereo not shown) [Compound 13, reference compound], for which the “effect on Aβ25-35-induced passive avoidance deficits (step-through latency, retention)” value (shortened to “effect … (step-through latency, retention)”) in assay [1] was “not active”. Besides, the “effect on Aβ25-35-induced spontaneous alternation deficits” value in assay [2] (0.3-3 mg/kg ip o.d. day 1 to 7, Y-maze day 8) is “not active”. At hBChE [3], the “BChE inhibition, in words” value is “lacking BChE inhibition”.
As for `CN1c2ccc(OC(=O)NCCCCCCn3ccnc3)cc2CN2CCc3ccccc3C21` (stereo not shown) [Compound 19n], on hBChE [4], the “Kc values (hBChE), in words” value was “one-digit nanomolar range”; the “k3 [min^-1] hBChE” value turned out to be 0.31 ± 0.15 min⁻¹; the Kd was found to be 13.1 ± 14.4 nM. This molecule also returned a k4 at hBChE [5] of 0.82 ± 0.03 h⁻¹. Further, the inhibition at 25 µM on hAChE turned out to be 18%. Besides, the “plC50 ± SEM (hBChE)” value on hBChE [3] (setting [6]) was found to be 7.88 ± 0.06. Besides, the half-maximal inhibitory concentration (IC50) on hBChE [3] (setting [7]) amounted to 13.3 nM. In addition, the “Selectivity index (IC50 hAChE/IC50 hBChE)” value (“Selectivity index” below) on hBChE [3] is >1000.
Consider `CN1c2ccc(OC(=O)NCCCCCCN3CCc4ccccc4C3)cc2CN2CCc3ccccc3C21` (stereo not shown) [Compound 19j], for which, on hBChE [4], the “Kc values (hBChE), in words” value was “one-digit nanomolar range”; the “k3 [min^-1] hBChE” value came out at 0.18 ± 0.02 min⁻¹; the affinity, expressed as Kd, was 3.6 ± 2.9 nM. This molecule also came in with a k4 at hBChE [5] of 0.025 ± 0.001 h⁻¹. Further, the “effect … (step-through latency, retention)” value in assay [1] is “effective at the 3 doses tested”. Also, testing at 10 µM against hAChE gave an inhibition of 9%. Besides, the “prevention of the effects of Aβ injection, both behavioral parameters” value in assay [2] is “fully prevented the effects of Aβ injection”. For the same molecule, the “dose active on Aβ25-35-induced spontaneous alternation deficits” value in assay [2] (Y-maze day 8) is given as 1 mg/kg ip. In addition, the “plC50 ± SEM (hBChE)” value on hBChE [3] (setting [6]) came out at 7.57 ± 0.05. Further, the IC50 on hBChE [3] (setting [7]) came to 26.7 nM. On hBChE [3], the “Selectivity index” value is reported as >1000.
Take `CN1c2ccc(OC(=O)NCCCCCCN3CCNCC3)cc2CN2CCc3ccccc3C21` (stereo not shown) [Compound 19r]: on hBChE [4], the “k3 [min^-1] hBChE” value was 0.32 ± 0.13 min⁻¹ and the Kd stood at 121 ± 116 nM. Besides, the k4 at hBChE [5] was 1.44 ± 0.07 h⁻¹. For the same molecule, on hAChE, the inhibition at 25 µM came out at 16%. Moreover, the “plC50 ± SEM (hBChE)” value on hBChE [3] (setting [6]) is recorded as 7.09 ± 0.03. Further, at hBChE [3] (setting [7]), the IC50 is 80.6 nM. Moreover, the “Selectivity index” value on hBChE [3] is >100.
Turning to `CN1c2ccc(OC(=O)NCCCCCCn3cnc4ccccc43)cc2CN2CCc3ccccc3C21` (stereo not shown) [Compound 19m], on hBChE [4], the “Kc values (hBChE), in words” value is reported as “one-digit nanomolar range”; the “k3 [min^-1] hBChE” value was determined as 0.26 ± 0.09 min⁻¹; the Kd turned out to be 7.7 ± 4.6 nM. The molecule also displayed a k4 at hBChE [5] of 0.45 ± 0.04 h⁻¹. Besides, the inhibition at 25 µM on hAChE was 44%. Besides, the “plC50 ± SEM (hBChE)” value on hBChE [3] (setting [6]) is reported as 8.13 ± 0.04. In addition, at hBChE [3] (setting [7]), the IC50 was determined as 7.4 nM. Further, the “Selectivity index” value on hBChE [3] is reported as >1000.
Consider `CN1c2ccc(OC(=O)NCCCCCCN3CCOCC3)cc2CN2CCc3ccccc3C21` (stereo not shown) [Compound 19d], for which, at hBChE [4], the “k3 [min^-1] hBChE” value amounted to 0.16 ± 0.02 min⁻¹ and binding was characterised by a dissociation constant (Kd) of 202 ± 55 nM. On hBChE [5], this molecule registered a k4 of 0.042 ± 0.004 h⁻¹. In assay [1], the “effect … (step-through latency, retention)” value is recorded as “effective at the 3 doses tested”. For the same molecule, on hAChE (100 µM), the inhibition at 100 µM came out at 45%. Further, in assay [2], the “prevention of the effects of Aβ injection, both behavioral parameters” value was “fully prevented the effects of Aβ injection”. In assay [2] (Y-maze day 8), the “dose active on Aβ25-35-induced spontaneous alternation deficits” value is listed as 0.3 mg/kg ip. The “fold lower activity than heptyl carbamate 7 (IC50 hBChE)” value on hBChE [3] (compared with compound 7) is “approximately 10 fold”. Moreover, the “plC50 ± SEM (hBChE)” value on hBChE [3] (setting [6]) was found to be 7.31 ± 0.02. Moreover, on hBChE [3] (setting [7]), the half-maximal inhibitory concentration (IC50) amounted to 49.3 nM. Also, the “Selectivity index” value at hBChE [3] was >1000.
On to `CN1c2ccc(OC(=O)NCCCCCCCCN3CCOCC3)cc2CN2CCc3ccccc3C21` (stereo not shown) [Compound 19e], for which, on hBChE [5], the k4 was determined as 1.58 ± 0.15 h⁻¹. Besides, the inhibition at 100 µM on hAChE is 22%. On hBChE [3], the IC50 is 85.1 nM and the “Selectivity index” value was >1000. Further, the IC50 on hBChE [3] (setting [7]) worked out at 19.8 nM.
Molecule `CN1c2ccc(OC(=O)NCCCCCCCCN3CCc4ccccc4C3)cc2CN2CCc3ccccc3C21` (stereo not shown) [Compound 19k] gave a k4 at hBChE [5] of 0.83 ± 0.06 h⁻¹. At hAChE, this molecule gave an inhibition at 10 µM of 11%. Besides, the “plC50 ± SEM (hBChE)” value at hBChE [3] (setting [6]) worked out at 7.49 ± 0.03. For the same molecule, the 50% inhibitory concentration (IC50) at hBChE [3] (setting [7]) stood at 32.6 nM. Also, the “Selectivity index” value at hBChE [3] is given as >1000.

For the origin of these results see patent EP3683219A1, “COMPOUND INHIBITING BUTYRYLCHOLINESTERASE” (Julius-Maximilians-Universität Würzburg, priority 2019, dated 2020).
